This is an account of results in patent publication US10087178B2, “Substituted spiropyrido[1,2-a]pyrazine derivative and medicinal use thereof as HIV integrase inhibitor” (priority 2012, dated 2018).

Counter-ions that a name gives are not always drawn. Like-named read-outs stand apart in the source and are kept apart here.

In the experiment the test system is HIV-1 NL4-3 strain. Briefly: Evaluation of antiviral activity: acute infection system of MT-4 cell with HIV-1 NL4-3 strain. Format: cell-based.
The mark [1] stands for this setting: MT-4 cells infected with HIV-1 NL4-3 strain (MOI 0.05), cultured 5 days, Cell Titer-Glo, read-out: antiviral activity (EC50).
[2] abbreviates: Human immunodeficiency virus 1, NL43, MT4, 120 h, MT-4 cells infected with HIV-1 NL4-3 strain (MOI 0.05), cultured 5 days, Cell Titer-Glo, read-out: antiviral activity (EC50).

For orientation: EC50 means the midpoint of the concentration-response curve.

Consider `COC[C@H]1C[C@]2(CN(C)C(=O)c3c(O)c(=O)c(C(=O)NCc4cccc(Cl)c4F)cn32)C1` [Example 26, N-(3-chloro-2-fluorobenzyl)-9′-hydroxy-cis-3-(methoxymethyl)-2′-methyl-1′,8′-dioxo-1′,2′,3′,8′-tetrahydrospiro[cyclobutane-1,4′-pyrido[1,2-a]pyrazine]-7′-carboxamide], for which the half-maximal effective concentration (EC50) under setting [1] was determined as 1.9 nM.
Take `CN(C)C(=O)[C@@H]1C[C@]12CN(C1CC1)C(=O)c1c(O)c(=O)c(C(=O)NCc3cccc(Cl)c3F)cn12` [Example T33, (1R,2R)-N^7′-(3-chloro-2-fluorobenzyl)-2′-cyclopropyl-9′-hydroxy-N^2,N^2-dimethyl-1′,8′-dioxo-1′,2′,3′,8′-tetrahydrospiro[cyclopropane-1,4′-pyrido[1,2-a]pyrazine]-2,7′-dicarboxamide]: the EC50 under setting [2] is 3.3 nM.
In the case of `CCN1C[C@]2(C[C@@H](CO)C2)n2cc(C(=O)NCc3cccc(Cl)c3F)c(=O)c(O)c2C1=O` [Example S44, N-(3-chloro-2-fluorobenzyl)-2′-ethyl-9′-hydroxy-trans-3-(hydroxymethyl)-1′,8′-dioxo-1′,2′,3′,8′-tetrahydrospiro[cyclobutane-1,4′-pyrido[1,2-a]pyrazine]-7′-carboxamide hydrochloride], under setting [2], the EC50 is 11 nM.
For `CNC(=O)[C@H]1C[C@]2(CN(C(C)C)C(=O)c3c(O)c(=O)c(C(=O)NCc4ccc(F)cc4F)cn32)C1` [Example S30, N^7′-(2,4-difluorobenzyl)-9′-hydroxy-2′-isopropyl-N^3-methyl-1′,8′-dioxo-1′,2′,3′,8′-tetrahydrospiro[cyclobutane-1,4′-pyrido[1,2-a]pyrazine]- cis-3,7′-dicarboxamide hydrochloride], the EC50 under setting [2] was found to be 170 nM.
Still for that read-out and setting: next, `COc1ccc(CNC(=O)c2cn3c(c(O)c2=O)C(=O)N(C)C[C@]32C[C@H](CO)C2)c(F)c1Cl` [Example S50, N-(3-chloro-2-fluoro-4-methoxybenzyl)-9′-hydroxy- cis-3-(hydroxymethyl)-2′-methyl-1′,8′-dioxo-1′,2′,3′,8′-tetrahydrospiro[cyclobutane-1,4′-pyrido[1,2-a]pyrazine]-7′-carboxamide]: 37 nM.
Same read-out and setting: next, `CC(C)O[C@H]1C[C@@]2(CN(C(C)C)C(=O)c3c(O)c(=O)c(C(=O)NCc4ccc(F)cc4F)cn32)C1` [Example S32, N-(2,4-difluorobenzyl)-9′-hydroxy-trans-3-isopropoxy-2′-isopropyl-1′,8′-dioxo-1′,2′,3′,8′-tetrahydrospiro[cyclobutane-1,4′-pyrido[1,2-a]pyrazine]-7′-carboxamide hydrochloride]: 6.6 nM.
As for `CC(C)N1C(=O)c2c(O)c(=O)c(C(=O)NCc3ccc(F)cc3F)cn2C[C@]12C[C@H](O)C2` [Example S55, N-(2,4-difluorobenzyl)-cis-3,9′-dihydroxy-2′-isopropyl-1′,8′-dioxo-1′,2′,4′,8′-tetrahydrospiro[cyclobutane-1,3′-pyrido[1,2-a]pyrazine]-7′-carboxamide hydrochloride], the EC50 under setting [2] was 33 nM.
In the case of `COC[C@H]1C[C@]2(CN(C)C(=O)c3c(O)c(=O)c(C(=O)NCc4cccc(Cl)c4F)cn32)C1` [Example 31, N-(3-chloro-2-fluorobenzyl)-9′-hydroxy-cis-3-(methoxymethyl)-2′-methyl-1′,8′-dioxo-1′,2′,3′,8′-tetrahydrospiro[cyclobutane-1,4′-pyrido[1,2-a]pyrazine]-7′-carboxamide hydrobromide], the EC50 (MT-4 cells infected with HIV-1 NL4-3 strain (MOI 0.05), cultured 5 days, Cell Titer-Glo, hydrobromide, read-out: antiviral activity (EC50)) is 1.9 nM.
Consider `CCN1C(=O)c2c(O)c(=O)c(C(=O)NCc3cccc(Cl)c3F)cn2C[C@]12C[C@H](CO)C2` [Example S60, N-(3-chloro-2-fluorobenzyl)-2′-ethyl-9′-hydroxy-cis-3-(hydroxymethyl)-1′,8′-dioxo-1′,2′,4′,8′-tetrahydrospiro[cyclobutane-1,3′-pyrido[1,2-a]pyrazine]-7′-carboxamide hydrochloride], for which the EC50 under setting [2] turned out to be 13 nM.
Same read-out and setting: next, `CO[C@H]1C[C@]2(CN(C)C(=O)c3c(OC(C)=O)c(=O)c(C(=O)NCc4cccc(Cl)c4F)cn32)C1` [Example S64, 7′-(3-chloro-2-fluorobenzylcarbamoyl)-cis-3-methoxy-2′-methyl-1′,8′-dioxo-1′,2′,3′,8′-tetrahydrospiro[cyclobutane-1,4′-pyrido[1,2-a]pyrazin]-9′-yl acetate]: 2.8 nM.
In the case of `CO[C@H]1C[C@]2(CN(C)C(=O)c3c(O)c(=O)c(C(=O)NCc4cccc(Cl)c4F)cn32)C1` [Example 1, N-(3-chloro-2-fluorobenzyl)-9′-hydroxy-cis-3-methoxy-2′-methyl-1′,8′-dioxo-1′,2′,3′,8′-tetrahydrospiro[cyclobutane-1,4′-pyrido[1,2-a]pyrazine]-7′-carboxamide hydrochloride], the concentration for a half-maximal effect (EC50) (read-out: EC50) was found to be 3.1 nM.
Regarding `CN1C[C@]2(C[C@H](OCc3ccccc3)C2)n2cc(C(=O)NCc3ccc(F)cc3F)c(=O)c(O)c2C1=O` [Example S10, cis-3-(benzyloxy)-N-(2,4-difluorobenzyl)-9′-hydroxy-2′-methyl-1′,8′-dioxo-1′,2′,3′,8′-tetrahydrospiro[cyclobutane-1,4′-pyrido[1,2-a]pyrazine]-7′-carboxamide hydrochloride], the concentration giving a half-maximal response (EC50) (Human immunodeficiency virus 1, NL43, MT4, 120 h, antiviral activity, MT-4 cells infected with HIV-1 NL4-3 (MOI 0.05), 5 days culture, Cell Titer-Glo luminescence, read-out: EC50) is 6.1 nM.
On to `CCN1C[C@]2(C[C@H](CO)C2)n2cc(C(=O)NCc3cccc(Cl)c3F)c(=O)c(O)c2C1=O` [Example S46, N-(3-chloro-2-fluorobenzyl)-2′-ethyl-9′-hydroxy-cis-3-(hydroxymethyl)-1′,8′-dioxo-1′,2′,3′,8′-tetrahydrospiro[cyclobutane-1,4′-pyrido[1,2-a]pyrazine]-7′-carboxamide hydrochloride], for which the EC50 under setting [2] was found to be 4.4 nM.
As to `CCN1C(=O)c2c(O)c(=O)c(C(=O)NCc3cccc(Cl)c3F)cn2C[C@@]12C[C@@H]2CO` [Example T44, (1S,2S)-N-(3-chloro-2-fluorobenzyl)-2′-ethyl-9′-hydroxy-2-(hydroxymethyl)-1′,8′-dioxo-1′,2′,4′,8′-tetrahydrospiro[cyclopropane-1,3′-pyrido[1,2-a]pyrazine]-7′-carboxamide hydrochloride], the EC50 (Human immunodeficiency virus 1, NL43, MT4, 120 h, read-out: antiviral activity (EC50), MT-4 cells infected with HIV-1 NL4-3 strain (MOI 0.05), cultured 5 days, Cell Titer-Glo) was found to be 5.1 nM.
Turning to `CCO[C@H]1C[C@]2(CN(C)C(=O)c3c(O)c(=O)c(C(=O)NCc4cccc(Cl)c4F)cn32)C1` [Example S29, N-(3-chloro-2-fluorobenzyl)- cis-3-ethoxy-9′-hydroxy-2′-methyl-1′,8′-dioxo-1′,2′,3′,8′-tetrahydrospiro[cyclobutane-1,4′-pyrido[1,2-a]pyrazine]-7′-carboxamide hydrochloride], the EC50 under setting [2] was 4.3 nM.
In turn, `CC(=O)N(C)C1CC2(C1)CN(C(C)C)C(=O)c1c(O)c(=O)c(C(=O)NCc3ccc(F)cc3F)cn12` (centres unmarked) [Example 20, N-(2,4-difluorobenzyl)-9′-hydroxy-2′-isopropyl-3-(N-methylacetamido)-1′,8′-dioxo-1′,2′,3′,8′-tetrahydrospiro[cyclobutane-1,4′-pyrido[1,2-a]pyrazine]-7′-carboxamide hydrochloride] displayed a concentration for a half-maximal effect (EC50) (Human immunodeficiency virus 1, NL43, MT4, 120 h, antiviral activity, MT-4 cells infected with HIV-1 NL4-3 (MOI 0.05), 5 days culture, Cell Titer-Glo luminescence) of 20 nM.
In the case of `COC[C@H]1C[C@]2(CN(C)C(=O)c3c(O)c(=O)c(C(=O)NCc4cccc(Cl)c4F)cn32)C1` [Example 33, N-(3-chloro-2-fluorobenzyl)-9′-hydroxy-cis-3-(methoxymethyl)-2′-methyl-1′,8′-dioxo-1′,2′,3′,8′-tetrahydrospiro[cyclobutane-1,4′-pyrido[1,2-a]pyrazine]-7′-carboxamide 4-methylbenzenesulfonate], the EC50 under setting [1] is 0.9 nM.
